Data as given in PubChem BioAssay AID1963860 (Molecular Pharmacology Branch, DTP, NCI, 2024).
pIC50: −log10 of the molar value.

Tested on: CN0375-F725-PDC KRAS spheroid viability
Test: Anticancer human tumor CN0375-F725-PDC patient-derived colon carcinoma cell line growth inhibition [KRAS2]
Details: spheroids with HUVEC and MSC; for pIC50: curve of first compound; for viability, T/C: stronger effect = lower value
How it was run: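 Combination screen of spheroid viability in tumor-cell co-cultures with endothelial (HUVEC) and mesenchymal stem cell stroma. Each agent was tested in half-log dilutions, topping at clinical Cmax or at 10 microM without a known Cmax.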

[1] = second compound 0.1 µM, first compound 0.0316 µM
[2] = second compound 0.1 µM, first compound 0.1 µM
[3] = second compound 0.1 µM, first compound 0.316 µM
[4] = second compound 0.1 µM, first compound 1 µM
[5] = second compound 0.1 µM, first compound 3.16 µM
[6] = second compound 0.1 µM, first compound 10 µM
[7] = second compound 0.316 µM, first compound 0.0316 µM
[8] = second compound 0.316 µM, first compound 0.1 µM
[9] = second compound 0.316 µM, first compound 0.316 µM
[10] = second compound 0.316 µM, first compound 1 µM
[11] = second compound 0.316 µM, first compound 3.16 µM
[12] = second compound 0.316 µM, first compound 10 µM
[13] = second compound 1 µM, first compound 0.0316 µM
[14] = second compound 1 µM, first compound 0.1 µM
[15] = second compound 1 µM, first compound 0.316 µM
[16] = second compound 1 µM, first compound 1 µM
[17] = second compound 1 µM, first compound 3.16 µM
[18] = second compound 1 µM, first compound 10 µM
[19] = second compound 3.16 µM, first compound 0.0316 µM
[20] = second compound 3.16 µM, first compound 0.1 µM
[21] = second compound 3.16 µM, first compound 0.316 µM
[22] = second compound 3.16 µM, first compound 1 µM
[23] = second compound 3.16 µM, first compound 3.16 µM
[24] = second compound 3.16 µM, first compound 10 µM
[25] = second compound 10 µM, first compound 0.0316 µM
[26] = second compound 10 µM, first compound 0.1 µM
[27] = second compound 10 µM, first compound 0.316 µM
[28] = second compound 10 µM, first compound 1 µM
[29] = second compound 10 µM, first compound 3.16 µM
[30] = second compound 10 µM, first compound 10 µM
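Further: spheroids exposed to agents for 7 days.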

| SMILES | pIC50 (second compound 0.1 µM) | pIC50 (second compound 0.316 µM) | pIC50 (second compound 1 µM) | pIC50 (second compound 3.16 µM) | pIC50 (second compound 10 µM) | viability, T/C [1] | viability, T/C [2] | viability, T/C [3] | viability, T/C [4] | viability, T/C [5] | viability, T/C [7] | viability, T/C [8] | viability, T/C [9] | viability, T/C [10] | viability, T/C [11] | viability, T/C [13] | viability, T/C [14] | viability, T/C [15] | viability, T/C [16] | viability, T/C [17] | other results |
| --- | --- | --- | --- | --- | --- | --- | --- | --- | --- | --- | --- | --- | --- | --- | --- | --- | --- | --- | --- | --- | --- |
| CCNC(=O)CC1N=C(c2ccc(Cl)cc2)c2cc(OC)ccc2-n2c(C)nnc21 (stereo not given) + COc1cc2nc(C)nc(NC(C)c3cc(N)cc(C(F)(F)F)c3)c2cc1OC1CCOC1 | 5.07 | 5.18 | 5.14 | 5.71 | > 7.50 | 97.9% | 88.2% | 77.7% | 78.2% | 63.7% | 94.2% | 87.6% | 78.1% | 71.7% | 63.4% | 87.4% | 84.5% | 71.2% | 69.7% | 60.6% | viability, T/C [6]: 45.8%; viability, T/C [12]: 42.5%; viability, T/C [18]: 45.4%; viability, T/C [19]: 79.1%; viability, T/C [20]: 79.4%; viability, T/C [21]: 64.9%; viability, T/C [22]: 58.6%; viability, T/C [23]: 44.8%; viability, T/C [24]: 32.5%; viability, T/C [25]: 12.7%; viability, T/C [26]: 8.68%; viability, T/C [27]: 5%; viability, T/C [28]: 3.29%; viability, T/C [29]: 2.26%; viability, T/C [30]: 1.29% |
| Cn1nccc1Nc1nccc(-c2cc3c(s2)C(C)(C)N(CCN2CCOCC2)C3=O)n1 + C=CC(=O)N1CCN(c2nc(=O)n(-c3c(C)ccnc3C(C)C)c3nc(-c4c(O)cccc4F)c(F)cc23)C(C)C1 | 5.16 | 5.27 | < 5.00 | 5.63 | 6.17 | 117% | 88% | 70.1% | 70.6% | 55.5% | 120% | 93.9% | 64.3% | 63.8% | 54.3% | 119% | 99.3% | 66% | 61.2% | 54.9% | viability, T/C [6]: 45.3%; viability, T/C [12]: 45%; viability, T/C [18]: 46.1%; viability, T/C [19]: 120%; viability, T/C [20]: 105%; viability, T/C [21]: 67.8%; viability, T/C [22]: 60.3%; viability, T/C [23]: 50.2%; viability, T/C [24]: 42.4%; viability, T/C [25]: 103%; viability, T/C [26]: 101%; viability, T/C [27]: 61.7%; viability, T/C [28]: 48.8%; viability, T/C [29]: 45.4%; viability, T/C [30]: 32.2% |
| CC1COCCN1c1cc(-c2ccnn2C)c2ccnc(-c3ccn[nH]3)c2n1 (stereo not given) + C=CC(=O)N1CCN(c2nc(=O)n(-c3c(C)ccnc3C(C)C)c3nc(-c4c(O)cccc4F)c(F)cc23)C(C)C1 | < 5.50 | < 5.50 | < 5.50 | < 5.50 | 5.75 | 99.4% | 88.8% | 81.6% | 65.5% | 55.8% | 95.3% | 80% | 78.2% | 65.5% | 52.6% | 103% | 89% | 80.5% | 65.6% | 53.8% | viability, T/C (second compound 0.1 µM, first compound 0.01 µM): 107%; viability, T/C (second compound 0.316 µM, first compound 0.01 µM): 104%; viability, T/C (second compound 1 µM, first compound 0.01 µM): 100%; viability, T/C (second compound 3.16 µM, first compound 0.01 µM): 101%; viability, T/C [19]: 107%; viability, T/C [20]: 89.3%; viability, T/C [21]: 76.7%; viability, T/C [22]: 64.4%; viability, T/C [23]: 53.5%; viability, T/C (second compound 10 µM, first compound 0.01 µM): 102%; viability, T/C [25]: 103%; viability, T/C [26]: 84.5%; viability, T/C [27]: 71.7%; viability, T/C [28]: 55.5%; viability, T/C [29]: 44.6% |
